The subject of one data set is gastric mucosa. The experiment in a line: Gastric Hemorrhage Lesion Formation Assay (GHLF) / gastric irritation. In kind it is in vivo, rat (Sprague-Dawley, male). To be noted: for Ave. No. of lesions per Animal / Animal with Lesion: oral, fasted, 4 h; for Animal with Lesion: animals with at least one lesion/group. The protocol:
In other words, the novel compounds of the present invention are less toxic in terms of gastric irritation. The GHLF test is conducted according to the following procedure:
Rats (Sprague-Dawley, Males, 120-180 gm) were fasted overnight and dosed orally with drug suspended in 0.5% methylcellulose. The drug concentration was adjusted so that each animal received 1.0 ml/100 gm body weight. Four hours later the animals were killed by asphixiation in carbon dioxide, the stomachs removed, cut open and everted. The mucosal lining was washed and examined under 3X magnification. The lesions are indentified as perforations of the gastric mucosa many of which perforate right through the wall of the stomach.
The results are expressed in two ways, the average number of lesions per stomach, and the number of animals in the group showing at least one lesion.

Data set [1] deals with edema induced by carragenin in rat's right hind paw. As to the kind of experiment: rat foot edema assay (carragenin-induced, C.F.E.). In kind it is in vivo, rat (male, Sprague Dawley). As for the experimental part:
The rat foot edema assay, by which anti-inflammatory activity is determined, is based on the ability of the compounds of Formula I to inhibit the edema induced by injection of an inflammatory (phlogistic) agent into the tissue of a rat's foot. Groups of six male rats (Sprague Dawley strain, 150±30 g each) are given orally the compounds to be tested one hour before 0.1 ml of 1% suspension of carragenin in methocel (0.5%) is injected into the plantar surface of the rat's right hind paw. Immediately and again three hours later, the foot volume is measured and recorded. The difference between the […] and final volumes is a measurement of the edema produced. For comparative purposes the activity of the compound to be tested is measured against that produced by the known anti-inflammatory agent, e.g. Zomepirac. The activity measured is also corrected by the swelling, if any, produced by the "control" rats which receive only the methocel solution.

Where [2] appears, read: Rattus norvegicus, oral, one hour before carragenin, foot volume 3 h later.

These results are taken from patent publication US4434175A, “Nonsteroidal compounds as anti-inflammatory and analgesic agents” (Merck & Co., Inc., priority 1982, dated 1984).

Usually inhibition in vivo stands for the relative decrease from the control value, in per cent. A high value points to a response far below the control. With `COc1cc(CC(=O)O)n(C)c1C(=O)c1ccc(C(F)(F)F)cc1` [4-CF3C6 H5; OCH3; CH3, 5-(p-trifluoromethylbenzoyl)-4-methoxy-1-methylpyrrole-2-acetic acid], in the data set with gastric mucosa (10 mg/kg), the “Ave. No. of lesions per Animal” value turned out to be 0 and the “Animal with Lesion” value is 0/6. Moreover, in the data set with gastric mucosa (30 mg/kg), the “Ave. No. of lesions per Animal” value is given as 0 and the “Animal with Lesion” value is 0/6. Moreover, in the data set on gastric mucosa (90 mg/kg), the “Ave. No. of lesions per Animal” value was 0 and the “Animal with Lesion” value is on record as 0/6. For the same compound, in the data set with gastric mucosa (150 mg/kg), the “Ave. No. of lesions per Animal” value came to 1 and the “Animal with Lesion” value is 1/6. In data set [1] (setting [2]), this compound displayed an inhibition in vivo at 3 mg/kg of 24%, an inhibition in vivo at 10 mg/kg of 48% and an inhibition in vivo at 20 mg/kg of 57%.
With `Cc1cc(CC(=O)O)n(C)c1C(=O)c1cccnc1` [drawing 23], in the data set with gastric mucosa (90 mg/kg), the “Ave. No. of lesions per Animal” value turned out to be 0 and the “Animal with Lesion” value is given as 0/6.
`CCOc1cc(CC(=O)O)n(C)c1C(=O)c1ccc(Cl)cc1` [4-ClC6 H5; OC2 H5; CH3, 4-ethoxy-5-(p-chlorobenzoyl)-1-methylpyrrole-2-acetic acid] displayed an inhibition in vivo at 20 mg/kg in data set [1] (setting [2]) of 33%.
Regarding `CSc1cc(C(=O)c2c(C)cc(CC(=O)O)n2C)n(C)c1`, in data set [1] (setting [2]), at 10 mg/kg the inhibition in vivo was 33% and at 30 mg/kg the inhibition in vivo was 53%.
Taken in the same sequence, the figures for `Cc1cc(CC(=O)O)n(C)c1C(=O)c1ccc(Cl)n1C` were 30% and 41%.
`Cc1cc(CC(=O)O)n(C)c1C(=O)c1ccc(Cl)cc1` [Zomepirac, reference compound]: the entries for the “Ave. No. of lesions per Animal” value with gastric mucosa (3 mg/kg), with gastric mucosa (6 mg/kg) and in the data set on gastric mucosa (9 mg/kg) were 0.5, 1.4 and 1.4, respectively. Besides, the “Animal with Lesion” value in the data set on gastric mucosa (3 mg/kg) is given as 4/6; in the data set on gastric mucosa (6 mg/kg), 3/6; in the data set on gastric mucosa (9 mg/kg) it was 6/6.
As to `CSc1ccc(C(=O)c2c(C)cc(CC(=O)O)n2C)n1C` [drawing 24], the results for the “Ave. No. of lesions per Animal” value with gastric mucosa (10 mg/kg), with gastric mucosa (30 mg/kg) and with gastric mucosa (60 mg/kg) were 0, 0 and 1.5, respectively. The “Animal with Lesion” value in the data set on gastric mucosa (10 mg/kg) is listed as 0/6; in the data set on gastric mucosa (30 mg/kg) it was 0/6; in the data set with gastric mucosa (60 mg/kg), 4/6.
On to `Cc1cc(CC(=O)O)n(C)c1C(=O)c1cccnc1` [drawing 19], for which, in data set [1] (setting [2]), the inhibition in vivo at 3 mg/kg came out at 34%, the inhibition in vivo at 10 mg/kg worked out at 47% and testing at 30 mg/kg gave an inhibition in vivo of 33%.
In the case of `COc1cc(CC(=O)O)n(C)c1C(=O)c1ccc(C)cc1` [4-CH3C6 H5; OCH3; CH3, 5-(p-methylbenzoyl)-4-methoxy-1-methylpyrrole-2-acetic acid], the “Ave. No. of lesions per Animal” value with gastric mucosa (10 mg/kg), in the data set with gastric mucosa (30 mg/kg) and with gastric mucosa (90 mg/kg) was 0 throughout. Further, the “Animal with Lesion” value in the data set with gastric mucosa (10 mg/kg), in the data set on gastric mucosa (30 mg/kg) and in the data set with gastric mucosa (90 mg/kg) was 0/6 throughout. For the same compound, in data set [1] (Rattus norvegicus, 5 mg/kg, oral, one hour before carragenin, foot volume 3 h later), the inhibition in vivo at 5 mg/kg was determined as 38%. The same compound had an inhibition in vivo at 20 mg/kg in data set [1] (setting [2]) of 38%.
Regarding `COc1cc(CC(=O)O)n(C)c1C(=O)c1ccc(Cl)n1C`, in data set [1] (setting [2]), the inhibition in vivo at 3 mg/kg stood at 30%, testing at 10 mg/kg gave an inhibition in vivo of 35% and the inhibition in vivo at 30 mg/kg is 41%.
In data set [1] (setting [2]), `COc1cc(CC(=O)O)n(C)c1C(=O)c1ccc([S+](C)[O-])cc1` (stereo not shown) [4-CH3 SOC6 H5; CH3 O; CH3, 4-methoxy-5-(p-methylsulfinylbenzoyl)-1-methylpyrrole-2-acetic acid] gave an inhibition in vivo at 10 mg/kg of 29% and an inhibition in vivo at 30 mg/kg of 23%.
In turn, `Cc1cc(CC(=O)O)n(C)c1C(=O)c1cccn1C` showed an inhibition in vivo at 30 mg/kg in data set [1] (setting [2]) of 26%.
As to `COc1cc(CC(=O)O)n(C)c1C(=O)c1ccc(SC)cc1` [4-CH3 SC6 H5; CH3 O; CH3, 5-(p-methylthiobenzoyl)-4-methoxy-1-methylpyrrole-2-acetic acid], in the data set with gastric mucosa (10 mg/kg), the “Ave. No. of lesions per Animal” value is on record as 0.5 and the “Animal with Lesion” value is 3/6. For the same compound, in the data set on gastric mucosa (30 mg/kg), the “Ave. No. of lesions per Animal” value is on record as 0.8 and the “Animal with Lesion” value was 2/6. This compound displayed an inhibition in vivo at 3 mg/kg in data set [1] (setting [2]) of 45%. In data set [1] (Rattus norvegicus, 15 mg/kg, oral, one hour before carragenin, foot volume 3 h later), this compound displayed an inhibition in vivo at 15 mg/kg of 64%.
Take `COc1cc(CC(=O)O)n(C)c1C(=O)c1ccc(Cl)cc1` [4-ClC6 H5; CH3 O; CH3, 5-(p-chlorobenzoyl)-4-methoxy-1-methylpyrrole-2-acetic acid]: in the data set with gastric mucosa (10 mg/kg), the “Ave. No. of lesions per Animal” value is 0 and the “Animal with Lesion” value is recorded as 0/5. For the same compound, in the data set with gastric mucosa (30 mg/kg), the “Ave. No. of lesions per Animal” value came out at 0 and the “Animal with Lesion” value is recorded as 0/5. In addition, in the data set on gastric mucosa (90 mg/kg), the “Ave. No. of lesions per Animal” value was determined as 2 and the “Animal with Lesion” value is on record as 3/5. Besides, in data set [1] (setting [2]), the inhibition in vivo at 3 mg/kg worked out at 48%, 10 mg/kg produced 51% inhibition in vivo, 20 mg/kg produced 60% inhibition in vivo and the inhibition in vivo at 30 mg/kg is 70%.
In data set [1] (setting [2]), `C=C(Cl)COc1cc(CC(=O)O)n(C)c1C(=O)c1ccc(Cl)cc1` [4-ClC6 H5; drawing 13; CH3] showed an inhibition in vivo at 3 mg/kg of 30% and an inhibition in vivo at 20 mg/kg of 32%.
Consider `Cc1cc(CC(=O)O)n(C)c1C(=O)c1ccccn1`, for which, in the data set on gastric mucosa (90 mg/kg), the “Ave. No. of lesions per Animal” value is reported as 0 and the “Animal with Lesion” value is recorded as 0/6.
As to `CSc1ccc(C(=O)c2c(C)cc(CC(=O)O)n2C)n1C` [drawing 18], in data set [1] (setting [2]), testing at 10 mg/kg gave an inhibition in vivo of 34% and at 30 mg/kg the inhibition in vivo was 45%.
On to `CSc1ccc(C(=O)c2c(C)cc(CC(=O)OCCNC(C)=O)n2C)n1C` [Acetamidoethyl 1,4-dimethyl-5-(1-methyl-5-methylthiopyrrol-2-oyl)pyrrole-2-acetate], for which the “Ave. No. of lesions per Animal” value with gastric mucosa (10 mg/kg) came out at 0; in the data set with gastric mucosa (30 mg/kg) it was 0; with gastric mucosa (90 mg/kg) it was 0.5. The “Animal with Lesion” value in the data set with gastric mucosa (10 mg/kg) was 0/6; in the data set with gastric mucosa (30 mg/kg), 0/6; in the data set with gastric mucosa (90 mg/kg), 2/6. For the same compound, the “activity, footnote to GHLF table” value with gastric mucosa (footnote to GHLF table) is recorded as “also active”. Also, in data set [1] (setting [2]), 10 mg/kg produced 13% inhibition in vivo. The same compound yielded an inhibition in vivo at 30 mg/kg in data set [1] (setting [2]) of 21%. The “activity in rat foot edema assay” value in data set [1] (footnote to edema table) was “also active”.
In data set [1] (setting [2]), `COc1cc(CC(=O)O)n(C)c1C(=O)c1ccc(F)cc1F` [2,4-F2C6 H5; OCH3; CH3, 5-(o-p-difluorobenzoyl)-4-methoxy-1-methylpyrrole-2-acetic acid] gave an inhibition in vivo at 3 mg/kg of 29%, an inhibition in vivo at 10 mg/kg of 35% and an inhibition in vivo at 30 mg/kg of 38%.
